For one data set, the system named is Rattus norvegicus. The conditions noted are these: for NOAEL: clinical signs.
The next data set relates to Daphnia magna. The conditions noted are these: chronic/long-term, duration: 21 days.
The test system of the next data set is Bibionidae. The conditions noted are these: chronic/long-term; duration: 28 days; other.
The next data set deals with Apis mellifera. Conditions: acute; dermal; mortality.
Another data set deals with Adalia sp. The data set is described as follows: LR50; higher = less toxic. Conditions: acute; duration: 48 hours; mortality.

Structures are written as SMILES. In brackets after ≈: the same amount, converted by molar mass.

These results are taken from EPA's ToxValDB 9.5 (doi:10.2903/j.efsa.2014.3873).

A word on the NOAEL: it is the highest dose or exposure tested at which no adverse effect was seen. Consider `CC(C)[C@H](C(=O)O[C@H](C#N)c1cccc(Oc2ccccc2)c1)c1ccc(Cl)cc1` [Esfenvalerate], for which the NOAEL with Rattus norvegicus (acute) and with Rattus norvegicus (chronic) was 1.75 mg/kg-day in each case. For the same compound, the LD50 amounted to 88.5 mg/kg in the data set with Rattus norvegicus (acute, oral, mortality); 1310 mg/kg-day in the data set with Colinus virginianus (acute, oral, mortality); 0.06 µg/piece with Apis mellifera. Further, the LC50 with Tagia sp. (acute, mortality) was found to be 10.6 mg/kg; with Oncorhynchus mykiss (acute, duration: 96 hours, mortality) it was 0.1 ng/mL (≈ 0.238 nM). Also, the NOEC with Tagia sp. (chronic/long-term) is 1.1 mg/kg; with Colinus virginianus (reproduction developmental), 18.7 mg/kg-day; in the data set with Daphnia magna, 0.052 µg/L; in the data set with Daphnia magna (reproduction), 0.0038 µg/L; in the data set on Bibionidae, 0.16 µg/L; in the data set with Oncorhynchus mykiss (chronic/long-term, duration: 21 days) it was 0.001 µg/L. In the data set on Adalia sp., this compound showed an LR50 of 0.291 g/ha.
